Patent publication US7855228B2, “Antibiotics targeting MreB” (The Board of Trustees of the Leland Stamford Junior …, priority 2005, dated 2010)
Converted amounts (≈) assume the structure as drawn. Where two headings read alike, the source gives them in different places. *1 amine or outer side, *2 acyl side, *3 side chain or, on linkers, in order; H or OH if unused. Where a SMILES comes first, the peptide text is derived from it. Bridges are numbered along the chain shown (N, C = ends). [ ]: non-standard residue; d: D form. Trp(2-yl) = O=C([C@H](Cc1c([*:3])[nH]c2ccccc12)N[*:1])[*:2]; Leu(4R-OH,5-OH) = C[C@](O)(CO)C[C@H](N)C(=O)O; cisHyp = O=C(O)[C@@H]1C[C@H](O)CN1

Experiments:
[1] = tested on: E. coli MG1655; test: Microscopic observation of cell shape; type: cell-based
Method: Microscopic observation. E. coli K-12 strain MG1655 (F^− λ^−) was grown in Lennox broth containing 1% Polypepton, 0.5% yeast extract, 0.5% NaCl, and 0.1% glucose (pH 7.2). Cells spread on a slide glass were treated with methanol for 5 min and covered with poly-L-lysine. The fixed cells were observed by the differential interference contrast system through an Axioskop 2 microscope (Carl Zeiss Co., Ltd., Oberkochen, Germany). To observe the anucleate cells, cells were stained with a 4′,6-diamidino-2-phenylindole (DAPI) solution (5 μg/ml in saline) and then observed by the fluorescence phase-contrast combined method.
The effect of each compound on E. coli cell morphology was next examined.

[2] = tested on: B. subtilis 168; test: Determination of minimum inhibitory concentration (MIC); type: cell-based, Bacillus subtilis; settings: for MIC B. subtilis: Example 2
Method: (§1) Determination of minimum inhibitory concentration (MIC). MICs were also determined on Mueller Hinton agar plates (0.2% beef extract, 1.75% acid digest of casein, 0.15% soluble starch, 1.5% agar, pH 7.3).
(§2) Determination of MIC Minimal inhibitory concentrations (MICs) were determined using a standard 2-fold serial dilution format on L agar plates. Ten microliters of stationary culture diluted in 0.85% NaCl to 10^6 cells/ml were spotted on per plate. […] MICs were also determined on Mueller Hinton agar plates (0.2% beef extract, 1.75% acid digest of casein, 0.15% soluble starch, 1.5% agar, pH 7.3).

[3] = tested on: E. coli K-12 strain SH3210; test: Anucleate cell blue assay; type: cell-based
Method: Anucleate cell blue assay. The anucleate cell blue assay was carried out as reported previously. Briefly, E. coli K-12 strain SH3210 (ΔtrpE5 his λ pXX747) was grown in a P medium containing 1% Polypepton and 0.5% NaCl (pH 7). Paper disks (φ 8 mm) each soaked with 20 μl of a sample solution were placed on P medium agar plates (1.5% agar) containing 10^4 cells/ml of SH3210 and 40 μg/ml of 5-bromo-4-chloro-3-indolyl β-D-galactoside. The plates were incubated at 42° C. for 24 h, and the development of a blue color and the growth inhibitory zone around the paper disks were evaluated.
Since 1 had originally been found through screening by an anucleate cell blue assay, the effect of each compound was first examined by this assay.

[4] = tested on: S. aureus subsp. aureus NBRC15035; test: Determination of minimum inhibitory concentration (MIC); type: cell-based, Staphylococcus aureus; settings: for MIC S. aureus: Example 2; for MIC: Staphylococcus aureus
Method: as §1, §2

[5] = tested on: E. coli MG1655; test: as above; type: cell-based; settings: for MIC: Escherichia coli; for MIC E. coli: Example 2
Method: as §1, §2

[6] = tested on: S. typhimurium NBRC13245; test: as above; type: cell-based, Salmonella typhimurium; settings: for MIC: Salmonella enterica, read-out: MIC S. typhimurium
Method: as §1, §2

[7] = tested on: P. putida NBRC14164; test: as above; type: cell-based, Pseudomonas putida; settings: for MIC P. putida: Example 2; for MIC: Pseudomonas putida
Method: as §1, §2

[8] = tested on: HoIB-GFP; test: HoIB-GFP (replisome) localization; type: cell-based, Caulobacter crescentus; settings: 1 hr treatment
Method: To assess the ability of these cells to assemble a replisome at the replication origins, A22 was administered to cells expressing a fusion of GFP to the HoIB subunit of DNA polymerase.

[9] = tested on: Caulobacter DNA replication; test: Analysis of DNA replication (32P-labeled dGTP incorporation, DNA-content FACS); type: cell-based, Caulobacter crescentus; settings: 10 μg/ml A22 or 5 mg/ml HU
From the text: We first examined the incorporation of radiolabeled dGTP into DNA, which linearly correlates with the rate of DNA replication. […] To assess the effect of A22 on DNA replication during the cell cycle, the radiolabeled nucleotide incorporation assay was repeated using synchronized cultures at different points in the cell cycle. Untreated cells display a dramatic rise in radioactivity levels characteristic of DNA replication initiation at the swarmer-to-stalked cell transition. This rise in radioactivity levels was also observed in A22-treated cells (FIG. 6A).
Finally, we examined the DNA content of A22-treated cells by FACS.
Analysis of DNA Replication. DNA replication was assessed by incorporation of 32P-labeled dGTP) or chromomycin-stained DNA-content FACS analysis as described previously.

[10] = tested on: Caulobacter; test: Caulobacter morphology (DIC images); type: cell-based, Caulobacter crescentus; settings: drugs that affect eukaryotic actin
From the text: Consistent with previous observations in E. coli (Iwai et al., 2002), A22 caused a dose-dependent alteration of Caulobacter morphology, transforming normal, crescent-shaped cells into rounded, lemon-shaped cells. The progression of cell shape deformation by A22 treatment was qualitatively similar to that caused by mreB depletion, though the A22 effect was more rapid (FIGS. […]). […] For example, A22 could disrupt the localization of new cell wall synthesis but have no effect on the existing cell wall, such that without additional growth and wall synthesis A22's effects cannot be perceived. A dependence on cell growth could also explain why A22's effect on morphology takes several hours to manifest.
Microscopy and Timelapse Imaging. All experiments other than the A22 flow-cell analysis were performed by mounting the samples on 1% agarose pads as described, with the appropriate concentration of A22 added to the agarose. The rates of origin-distal locus segregation were determined by inducing PxyI:lacI:cfp expression with 0.03% xylose for 75 min, isolating swarmer cells, and growing the swarmer cells in M2G liquid medium for 50 min. After 50 min, 10 μg/ml of A22 was added to these liquid cultures, they were mounted onto 1% M2G agarose pads containing 10 μg/ml A22, and a phase and CFP fluorescence image was captured every 2 min for 60 min. The images were analyzed by previously described software to determine the average position and rate of movement of the observed foci.

[11] = tested on: E. coli JA221, JST975; test: Cell shapes of A22-resistant mutant JA221 and parent JST975; type: cell-based; settings: mecillinam treatment (1 μg/ml, 2 h, 37° C.)
Method: FIG. 9. Effects of A22 and mecillinam on cell shapes of the A22-resistant mutant JA221. Exponentially growing cells of the A22-resistant mutant strain JA221 and the parent strain JST975 were treated with 1 μg/ml mecillinam or 10 μg/ml A22 for 2 h at 37° C. Differential interference contrast microphotographs are shown.
After prolonged (9 days) incubation of the JST975 assay plates, several isolated colonies that grew up within the clear growth inhibitory zones were purified on L plates and their A22-sensitivity was examined.

[12] = tested on: E. coli K-12 strains (ponB, mreB alleles); test: MICs of mecillinam and A22 for E. coli K-12 strains; type: cell-based; settings: Escherichia coli
Method: as §2

[13] = E. coli MG1655 treated at 300 μg/ml (**), 30° C., 16 h
[14] = Example 2, methods as in Example 1
[15] = Bacillus subtilis, 168, read-out: MIC B. subtilis
[16] = NBRC15035, read-out: MIC S. aureus
[17] = NBRC14164, read-out: MIC P. putida

## O=C=NCc1ccccc1 [Compound 9, benzylisocyanate, reference compound]
[1]; [13]
  Shape: Rod**
[1]; [14]
  Shape: Rod
[2]; [15]
  MIC: > 100 µg/mL
[2]; methods as in Example 1
  MIC B. subtilis: >100 µg/mL
[3]
  Growth inhibitory zone and blue zone in the anucleate cell blue assay (in words): neither a growth inhibitory zone nor blue zone
[4]; methods as in Example 1
  MIC S. aureus: >100 µg/mL
[4]; [16]
  MIC: > 100 µg/mL
[5]; MG1655, read-out: MIC E. coli
  MIC: > 100 µg/mL
[5]; methods as in Example 1
  MIC E. coli: >100 µg/mL
[6]; [14]
  MIC S. typhimurium: >100 µg/mL
[6]
  MIC: > 100 µg/mL
[7]; methods as in Example 1
  MIC P. putida: >100 µg/mL
[7]; [17]
  MIC: > 100 µg/mL

## NC(=S)Nc1ccccc1 [Compound 10, N-phenylthiourea, reference compound]
[1]; [13]
  Shape: Rod**
[1]; [14]
  Shape: Rod
[2]; [15]
  MIC: > 100 µg/mL
[2]; methods as in Example 1
  MIC B. subtilis: >100 µg/mL
[3]
  Growth inhibitory zone and blue zone in the anucleate cell blue assay (in words): neither a growth inhibition nor blue zone
[4]; methods as in Example 1
  MIC S. aureus: >100 µg/mL
[4]; [16]
  MIC: > 100 µg/mL
[5]; MG1655, read-out: MIC E. coli
  MIC: > 100 µg/mL
[5]; methods as in Example 1
  MIC E. coli: >100 µg/mL
[6]; [14]
  MIC S. typhimurium: >100 µg/mL
[6]
  MIC: > 100 µg/mL
[7]; methods as in Example 1
  MIC P. putida: >100 µg/mL
[7]; [17]
  MIC: > 100 µg/mL

## NC(=O)NO [HU, hydroxyl-urea, reference compound]
[8]
  HoIB-GFP localization: rapid delocalization of HoIB-GFP
[9]
  Incorporation of radiolabeled dGTP, synchronized cultures (replication initiation): no such increase in radioactivity levels

## C=C1[C@@H](C)[C@H]2[C@H](Cc3ccccc3)NC(=O)[C@]23[C@H](OC(C)=O)/C=C/[C@@](C)(O)C(=O)[C@@H](C)C/C=C/[C@H]3[C@@H]1O [cytochalasin D]
[10]
  Caulobacter growth rate or morphology: failed to perturb growth rate or morphology

## C/C1=C\[C@H](C)C[C@H](C)OC(=O)C[C@H](c2ccc(O)cc2)NC(=O)[C@@H](Cc2c(Br)[nH]c3ccccc23)N(C)C(=O)[C@H](C)NC(=O)[C@@H](C)C1 [jasplakinolide]
[10]
  Caulobacter growth rate or morphology: failed to perturb growth rate or morphology

## CC1(C)S[C@@H]2[C@H](/N=C/N3CCCCCC3)C(=O)N2[C@H]1C(=O)O [mecillinam, reference compound]
[11]
  Cell shape of resistant mutant JA221: formed spherical cells
[1]; [14]
  Shape: Sphere
[2]; Bacillus subtilis, 168, Example 2, methods as in Example 1, read-out: MIC B. subtilis
  MIC: 12.5 µg/mL (≈ 38.4 µM)
[4]; NBRC15035, Example 2, methods as in Example 1, read-out: MIC S. aureus
  MIC: 50 µg/mL (≈ 154 µM)
[12]; read-out: MICs, strain JA221 (ponB −, mreB221)
  MIC: 0.125 µg/mL (≈ 0.384 µM)
[12]; read-out: MICs, strain JE1011 (ponB +, mreB +)
  MIC: 0.25 µg/mL (≈ 0.768 µM)
[12]; read-out: MICs, strain JM109/pMW218 (ponB +, mreB +/−)
  MIC: 0.125 µg/mL (≈ 0.384 µM)
[12]; read-out: MICs, strain JM109/pMreB1 (ponB +, mreB +/+)
  MIC: 0.125 µg/mL (≈ 0.384 µM)
[12]; read-out: MICs, strain JM109/pMreB221 (ponB +, mreB +/mreB221)
  MIC: 0.125 µg/mL (≈ 0.384 µM)
[12]; read-out: MICs, strain JST975 (ponB −, mreB +)
  MIC: 0.125 µg/mL (≈ 0.384 µM)
[12]; read-out: MICs, strain JSTA220 (ponB −, mreB +)
  MIC: 0.125 µg/mL (≈ 0.384 µM)
[12]; read-out: MICs, strain JSTA221 (ponB −, mreB221)
  MIC: 0.125 µg/mL (≈ 0.384 µM)
[12]; read-out: MICs, strain WA220 (ponB +, mreB +)
  MIC: 0.25 µg/mL (≈ 0.768 µM)
[12]; read-out: MICs, strain WA221 (ponB +, mreB221)
  MIC: 0.25 µg/mL (≈ 0.768 µM)
[5]; MG1655, Example 2, methods as in Example 1, read-out: MIC E. coli
  MIC: 0.0977 µg/mL (≈ 0.3 µM)
[6]; [14]
  MIC: 0.0977 µg/mL (≈ 0.3 µM)
[7]; NBRC14164, Example 2, methods as in Example 1, read-out: MIC P. putida
  MIC: > 100 µg/mL

## CO[C@@H]1[C@@H](OC(N)=O)[C@@H](O)[C@H](Oc2ccc3c(O)c(NC(=O)c4ccc(O)c(CC=C(C)C)c4)c(=O)oc3c2C)OC1(C)C [novobiocin]
[8]
  HoIB-GFP localization: rapid delocalization of HoIB-GFP

## C[C@@H]1NC(=O)[C@H](C[C@@](C)(O)CO)NC(=O)[C@@H]2Cc3c([nH]c4ccccc34)SC[C@H](NC(=O)[C@@H]([C@H](C)O)NC1=O)C(=O)N1C[C@@H](O)C[C@H]1C(=O)N[C@@H](C)C(=O)N2 [phalloidin] (cyclo(A[dT]C[cisHyp]A[Trp(2-yl)][Leu(4R-OH,5-OH)]); thioether 3-6)
[10]
  Caulobacter growth rate or morphology: failed to perturb growth rate or morphology

## latrunculin
[10]
  Caulobacter growth rate or morphology: failed to perturb growth rate or morphology
